Measurements from US9566222B2, “Peptidyl arginine deiminase 1 and/or 3 activator compounds in the epidermis and uses thereof” (PIERRE FABRE DERMO-COSMETIQUE, priority 2011, dated 2017).

Tests used:
[1] = target: T1, PAD1 (Homo sapiens, UniProt Q9ULC6); test: Deimination of recombinant human filaggrin (Fil-His) by PAD1, immunodetection with AMC anti-citrulline antibody; assay type: biochemical; settings: 5 mM streptomycin vs solvent alone (1% dimethylsulfoxide); 3 or 5 min incubation
T1 construct: purchased Professor Hidenari Takahara (University of Ibaraki, Japan)
T1 sequence (Q9ULC6 1-663): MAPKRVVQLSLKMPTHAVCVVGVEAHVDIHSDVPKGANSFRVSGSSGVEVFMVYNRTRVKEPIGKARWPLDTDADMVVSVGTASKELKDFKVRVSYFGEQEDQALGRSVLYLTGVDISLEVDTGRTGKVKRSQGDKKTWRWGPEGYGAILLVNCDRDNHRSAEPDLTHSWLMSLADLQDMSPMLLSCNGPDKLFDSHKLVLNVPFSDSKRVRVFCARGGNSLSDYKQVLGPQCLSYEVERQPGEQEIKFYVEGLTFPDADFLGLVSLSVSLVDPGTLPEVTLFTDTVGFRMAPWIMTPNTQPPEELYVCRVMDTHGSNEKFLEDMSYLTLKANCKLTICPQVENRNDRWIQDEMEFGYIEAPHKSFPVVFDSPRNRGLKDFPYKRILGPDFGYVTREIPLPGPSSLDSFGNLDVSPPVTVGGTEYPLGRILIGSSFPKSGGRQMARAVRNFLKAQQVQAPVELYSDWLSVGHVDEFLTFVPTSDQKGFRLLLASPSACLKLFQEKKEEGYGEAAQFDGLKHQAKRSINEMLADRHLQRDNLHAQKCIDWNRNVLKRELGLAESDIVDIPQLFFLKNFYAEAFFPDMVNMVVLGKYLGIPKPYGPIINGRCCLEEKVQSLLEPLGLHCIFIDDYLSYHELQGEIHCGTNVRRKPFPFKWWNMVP
Experimental: 25 ng of Fil-His was incubated at 50° C. in the presence of 40 mU of PAD1 or PAD3 in deimination buffer (10 mM CaCl2, 5 mM dithiothreitol, 50 mM Tris-HCl pH 7.4). After a variable incubation period according to the PAD isoform (generally 2 to 5 minutes for PAD1 and 60 to 180 minutes for PAD3), the reaction was quenched by adding sample buffer. The proteins were then separated by SDS-PAGE and immunodetected by AHF11 anti-filaggrin monoclonal antibody and AMC modified anti-citrulline antibody (Millipore, Mollsheim, France) diluted to 1/5000.
The deimination of Fil-His (25 ng) was carried out as described above (paragraph A.3), in deimination buffer (10 mM CaCl2, 5 mM dithiothreitol, 50 mM Tris-HCl pH 7.4) at 50° C. in the presence of 40 mU of PAD1 or PAD3, for 0, 3, 5, 60 and 180 minutes. […] In certain cases, the active agents were diluted in water. After incubation, the proteins of the reaction mixture were immunodetected by AMC antibody. The immunodetection intensity was quantified by densitometry with the NIH ImageJ software.

[2] = test system: Reconstructed human epidermises; test: Deiminated proteins in horny layer of reconstructed epidermises after topical gel, immunohistology (AMC); assay type: cell-based; settings: gel containing 3% acefylline as sodium salt, 24 hours
Experimental: Reconstructed human epidermises 0.33 cm^2 in size were grown at the air-liquid interface for 14 days. 5 mg/cm^2 of pre-formulas containing the various active agents was then applied homogeneously to their surface using a brush. Triplicates were carried out for a treatment period of 24 hours at 37° C. The epidermises were then divided: half were frozen in Tissue Tek and then 6 μm cryo-sections were made for immunohistology; the other half were dry frozen at −80° C. for the preparation of total protein extracts before analysis by Western blot.
The deiminated proteins were immunodetected as described above after incubation in modification buffer. Negative controls were prepared systematically by omitting the modification. After washing with water, the sections were incubated with AMC anti-citrulline antibody diluted to 1/1000. Finally, counter-staining was carried out with hematoxylin.

| Structure (SMILES) | Effect on PAD1 (AMC immunodetection intensity of deiminated Fil-His) [1] | Immunodetection intensity (AMC staining) of the horny layer vs control gel [2] |
| --- | --- | --- |
| [H]/N=C(/N)N[C@H]1[C@H](O)[C@@H](O)[C@H](O[C@@H]2O[C@@H](C)[C@](O)(C=O)[C@H]2O[C@@H]2O[C@@H](CO)[C@H](O)[C@@H](O)[C@@H]2NC)[C@@H](N/C(N)=N\[H])[C@@H]1O [streptomycin] | inhibited | – |
| Cn1c(=O)c2c(ncn2CC(=O)[O-])n(C)c1=O.[Na+] [acefylline in the form of sodium salt] | – | stronger |
